The values below are quoted from earlier work in paper PMC12678798, “Discovery of an allosteric binding site for anthraquinones at the human P2X4 receptor” (Nature Communications, 2025).

Broadly, the pEC50 is the negative decadic logarithm of the EC50, by convention in mol/L.

pEC50: −log10 of the molar value.

The subject of data set [1] is chimeric receptor c1^V71-I83. Further details: method as in PMID 36328074. Particulars: cited from earlier work.
The target in data set [2] is T1, chimeric P2X4(P2X2) receptor c6^N208-S216 (Homo sapiens, UniProt Q99571, I209R/N208D/S216R/T211D/T212G).
T1 sequence (Q99571 1-388 N208D/I209R/T211D/T212G/S216R): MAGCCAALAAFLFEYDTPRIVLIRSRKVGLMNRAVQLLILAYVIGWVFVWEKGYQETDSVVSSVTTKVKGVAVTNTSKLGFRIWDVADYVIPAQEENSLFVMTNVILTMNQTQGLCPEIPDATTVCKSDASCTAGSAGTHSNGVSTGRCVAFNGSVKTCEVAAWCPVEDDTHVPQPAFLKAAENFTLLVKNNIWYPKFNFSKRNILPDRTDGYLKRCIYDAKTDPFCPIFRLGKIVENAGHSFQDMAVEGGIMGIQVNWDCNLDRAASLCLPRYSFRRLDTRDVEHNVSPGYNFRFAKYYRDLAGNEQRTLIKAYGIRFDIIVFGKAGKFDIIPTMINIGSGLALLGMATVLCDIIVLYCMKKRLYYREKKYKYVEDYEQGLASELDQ
Also noted: expressed in transfected cells; gene synthesis (Geneart), pLVX-IRES-mCherry; method as in ref 19 (supplement). Particulars: read-out: ATP EC50, published value, ref 19 (supplement); cited from earlier work.

For the compound `Nc1ncnc2c1ncn2[C@@H]1O[C@H](COP(=O)(O)OP(=O)(O)OP(=O)(O)O)[C@@H](O)[C@H]1O` [ATP, Adenosine 5′-triphosphate], the “Maximal effect of ATP compared to that of the human wt P2X4 receptor” value in data set [1] was 4%. The pEC50 in data set [2] was 6.24.
